Measured values from PMC6547440, “The HRP3 PWWP domain recognizes the minor groove of double-stranded DNA and recruits HRP3 to chromatin” (Nucleic Acids Research, 2019).
Blank lines part the entries; values can stand above or below the molecule they belong to. No end group written: not given here. Me3 = trimethyl-lysine (Lys side chain trimethylated); Me2 = dimethyl-lysine (Lys side chain dimethylated)

What was measured:
H3K36me3 peptide = assay: NMR titration, loss of H3K36me3 peptide binding of HRP3 PWWP mutants; conditions: versus wild-type
Method: (§1) All 2D ^1H-^15N HSQC NMR spectra were collected on the Bruker Avance III HD 600 MHz and 800 MHz spectrometers at 298 K. The NMR data were processed by NMRPipe ([39]) and analysed by KUJIRA ([40]) running with NMRview ([41]) softwares. Chemical shift perturbation experiments were carried out using ^15N-labelled HRP3 PWWP (residues 1–110) dissolved in buffer containing 20 mM PBS at pH 6.9, 20 mM NaCl and 2 mM DTT. A series of 2D ^1H-^15N HSQC spectra were recorded at HRP3 PWWP:H3K36me3/2/1/0 (residues 29–41) molar ratios of 1:0, 1:0.5, 1:1.5, 1:4, 1:6, 1:10, 1:15 and 1:20, respectively. The combined chemical shift perturbation was calculated using the following equation: Δδ = [(Δδ^1H)^2 + (Δδ^15N/5)^2]^1/2. Dissociation constants were calculated by fitting the data to a single-site ligand-binding model (SigmaPlot).

chromatin of HepG2 cells [1] = assay: Subcellular fractionation, chromatin binding of GFP-HRP3 variants in HepG2 cells; type: cell-based, human; conditions: cellular fractionation, western blot anti-GFP
Method: (§2) HepG2 (ATCC HB-8065) and HEK293T human embryonic kidney cells (ATCC #CRL-11268) were cultured in Dulbecco’s modified Eagle’s medium supplemented with 10% FBS. Stable overexpression of wild-type or mutant HRP3 in HepG2 cells was performed using FUGW lentiviral constructs expressing wild-type or mutant HRP3. Lentiviral vector infections ([47]) and plasmid transfections ([48]) were performed as previously described. Overexpression efficiency was determined by western blot.
Cellular fractionations were performed using a Subcellular Fractionation Kit (Thermo Scientific, cat. 78840) according to the manufacturer’s protocol. A total of 1 × 10^6 cells were used for each cell line’s fractionation. Soluble nuclear contents and chromatin-bound nuclear contents were analysed by western blotting using anti-GFP (gta-20, Chromo-Tek) and anti-histone H3 (4499S, CST) antibodies.

chromatin of HepG2 cells [2] = assay: ChIP-Seq of GFP-HRP3 variants in HepG2 cells; type: cell-based, human; conditions: ChIP-Seq with GFP antibody, HepG2, two biological replicates combined
Method: as §2
For chromatin immunoprecipitation, HepG2 cells were cross-linked with 1% formaldehyde at 37°C for 10 min and quenched with 0.125 M glycine for 5 min at room temperature. ChIP was performed using a ChIP assay kit (Millipore) according to the manufacturer’s protocol. Antibodies used for ChIP were GFP (gta-20, Chromo-Tek) and H3K36me3 (ab9050, abcam).
ChIP-Seq data were aligned to human genome hg19 using Bowtie 1.0 allowing one mismatch. Two biological replicates were performed and combined for the analysis. Analysis was performed using the Galaxy ([49]) and Cistrome ([50]) Platform and via custom R scripts for Bioconductor ([51]). Peak calling was performed using MACS2. Promoter definitions were downloaded from the UCSC browser ([52]). DNase I hypersensitivity and MNase-Seq data from ENCODE (GSM816662, GSM920557) ([53]) were used.

HRP3 PWWP WT = biological target: T1, HRP3 PWWP WT (Homo sapiens, UniProt Q9Y3E1); assay: NMR titration of H3K36 peptides with wild-type HRP3 PWWP; type: binding; conditions: 15N-labelled HRP3 PWWP (1–110) WT, H3 residues 29–41, 20 mM PBS pH 6.9, 20 mM NaCl, 2 mM DTT, 298 K
T1 construct: using ^15N-labelled HRP3 PWWP (residues 1–110) dissolved in buffer; 6xHis-SUMO (cleaved yes); made in house; host or cells: Escherichia coli Rosetta (DE3)
T1 sequence (Q9Y3E1 1-110): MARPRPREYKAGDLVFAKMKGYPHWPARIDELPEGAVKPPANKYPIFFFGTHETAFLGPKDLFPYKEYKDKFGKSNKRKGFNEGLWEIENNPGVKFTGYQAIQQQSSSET
Method: as §1

HRP3 PWWP = assay: DNA geometry analysis of the PWWP/DNA complex structures; set-up: species or system human
Method: DNA geometry was analysed with the 3DNA ([42]) and Curves+ ([43]) programs. Electrostatic potentials were calculated using the DelPhi program ([44]). The minor groove width was measured according to the method described ([45]). In detail, the distances between the ith (i indicates the number of the base from one chain) phosphate atom from one chain and the (i + 4)th atom from the paired chain were used to describe the minor groove width at the ith base. Electrostatic potentials were calculated at the midpoints between the above phosphate atom pairs used to calculate the minor groove widths.

HRP3 PWWP (1-110) WT = HRP3 PWWP (1-110) WT (UniProt Q9Y3E1 1-110); assay: MST; MST: 50 mM KCl, 10 mM Na cacodylate pH 6.5, 2 mM DTT, 200 nM FAM-dsDNA; ITC: 10 mM PBS pH 7.0, 50 mM NaCl, 2 mM b-ME, 20 C; nucleosome EMSA: 20 mM Tris pH 7.5; conditions: protein: recombinant, tags: none (His-SUMO removed), label: 5'-FAM (MST), blunt
Chain of HRP3 PWWP (1-110) WT (Q9Y3E1 1-110): as above

[3] = biological target: HRP3 PWWP K18A/N76A/R78A (KNR-A) (UniProt Q9Y3E1 1-110, K18A;N76A;R78A); assay: as above; conditions: protein: recombinant; tags: none (His-SUMO removed); label: 5'-FAM (MST); blunt; self-complementary
Chain of HRP3 PWWP K18A/N76A/R78A (KNR-A) (Q9Y3E1 1-110 K18A/N76A/R78A): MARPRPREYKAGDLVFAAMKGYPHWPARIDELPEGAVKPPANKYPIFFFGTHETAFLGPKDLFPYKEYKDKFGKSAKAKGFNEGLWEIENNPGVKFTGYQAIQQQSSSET

[4] = biological target: T2, HRP3 PWWP domain (residues 1–110) (human, UniProt Q9Y3E1 1-110); assay: NMR titration; 2D 1H-15N HSQC chemical shift perturbation of 15N-labelled HRP3 PWWP (1–110); H3 peptide (29–41) added to molar ratios 1:0 to 1:20; 298 K; 20 mM PBS pH 6.9, 20 mM NaCl, 2 mM DTT; single-site ligand-binding fit; conditions: both partners purified
T2 construct: HDGF-related protein 3 (HRP3, HDGFL3), human, residues 1-110 holding the PWWP domain; His-SUMO tag removed by ULP1 protease; also called HRP3 PWWP (1–110); HRP3(1-110); source: E. coli Rosetta (DE3), purified (nickel column, gel filtration), 15N-labelled
T2 sequence (Q9Y3E1 1-110): as the sequence (Q9Y3E1 1-110) above

HRP3 PWWP N76A = HRP3 PWWP N76A (UniProt Q9Y3E1 1-110, N76A); assay: MST; affinity unchanged vs WT; MST: 50 mM KCl, 10 mM Na cacodylate pH 6.5, 2 mM DTT, 200 nM FAM-dsDNA; ITC: 10 mM PBS pH 7.0, 50 mM NaCl, 2 mM b-ME, 20 C; nucleosome EMSA: 20 mM Tris pH 7.5; conditions: protein: recombinant; tags: none (His-SUMO removed); label: 5'-FAM (MST); blunt; self-complementary
Chain of HRP3 PWWP N76A (Q9Y3E1 1-110 N76A): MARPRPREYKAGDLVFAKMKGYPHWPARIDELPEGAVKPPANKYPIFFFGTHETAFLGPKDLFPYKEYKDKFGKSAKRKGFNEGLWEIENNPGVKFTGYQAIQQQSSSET

[5] = biological target: T3, HRP3 PWWP domain (residues 1–110) Y22A (human, UniProt Q9Y3E1 1-110, Y22A); assay: NMR titration; 2D 1H-15N HSQC chemical shift perturbation of 15N-labelled HRP3 PWWP (1–110); H3 peptide (29–41) added to molar ratios 1:0 to 1:20; 298 K; 20 mM PBS pH 6.9, 20 mM NaCl, 2 mM DTT; single-site ligand-binding fit; conditions: both partners purified
T3 construct: HDGF-related protein 3 (HRP3, HDGFL3), human, residues 1-110 holding the PWWP domain, aromatic cage mutant; they are not repeated for the mutants; source: E. coli Rosetta (DE3), purified (nickel column, gel filtration), 15N-labelled
T3 sequence (Q9Y3E1 1-110 Y22A): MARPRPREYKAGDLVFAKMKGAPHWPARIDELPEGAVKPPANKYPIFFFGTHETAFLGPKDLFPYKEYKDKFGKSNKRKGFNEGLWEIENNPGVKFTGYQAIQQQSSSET

[6] = biological target: T4, HRP3 PWWP domain (residues 1–110) F48A (human, UniProt Q9Y3E1 1-110, F48A); assay: as above; conditions: both partners purified
T4 construct: HDGF-related protein 3 (HRP3, HDGFL3), human, residues 1-110 holding the PWWP domain, aromatic cage mutant; they are not repeated for the mutants; source: E. coli Rosetta (DE3), purified (nickel column, gel filtration), 15N-labelled
T4 sequence (Q9Y3E1 1-110 F48A): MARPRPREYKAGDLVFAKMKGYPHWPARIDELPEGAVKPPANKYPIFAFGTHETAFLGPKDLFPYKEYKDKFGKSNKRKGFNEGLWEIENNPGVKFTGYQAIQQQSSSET

[7] = biological target: T5, HRP3 PWWP domain (residues 1–110) E53A (human, UniProt Q9Y3E1 1-110, E53A); assay: as above; conditions: both partners purified
T5 construct: HDGF-related protein 3 (HRP3, HDGFL3), human, residues 1-110 holding the PWWP domain; they are not repeated for the mutants; source: E. coli Rosetta (DE3), purified (nickel column, gel filtration), 15N-labelled
T5 sequence (Q9Y3E1 1-110 E53A): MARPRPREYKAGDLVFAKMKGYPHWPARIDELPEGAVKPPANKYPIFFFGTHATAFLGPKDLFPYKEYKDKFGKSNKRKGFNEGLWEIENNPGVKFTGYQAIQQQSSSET

- fold loss of binding affinity for the H3K36me3 peptide (H3K36me3 peptide): 5.7 fold
Molecule: E53A: HRP3 PWWP mutant E53A

Molecule: KNR-A: HRP3 K18A/N76A/R78A mutant, GFP fusion
- chromatin binding (chromatin of HepG2 cells [1]): dramatically reduced the chromatin binding
- chromatin binding / recruitment by ChIP-Seq (chromatin of HepG2 cells [2]): strong reduction in chromatin binding

- Kd (HRP3 PWWP WT): 5100 ± 1900 µM
Molecule: CNCCCC[C@H](NC(=O)[C@@H](NC(=O)CNC(=O)CNC(=O)[C@@H](NC(=O)[C@H](C)NC(=O)[C@@H]1CCCN1C(=O)[C@H](C)N)[C@@H](C)O)C(C)C)C(=O)N[C@@H](CCCCN)C(=O)N1CCC[C@H]1C(=O)N[C@@H](Cc1c[nH]cn1)C(=O)N[C@@H](CCCNC(=N)N)C(=O)N[C@@H](Cc1ccc(O)cc1)C(=O)O [H3K36me1]

Molecule: K18A: DNA binding mutant of human HRP3, GFP fusion
- chromatin binding (chromatin of HepG2 cells [1]): dramatically reduced the chromatin binding

- fold loss of binding affinity for the H3K36me3 peptide (H3K36me3 peptide): 15 fold
Molecule: Y22A: HRP3 PWWP aromatic cage mutant
- chromatin binding (chromatin of HepG2 cells [1]): but not the H3K36me3 binding amino acids (Y22A) alone, dramatically reduced the chromatin binding
- chromatin binding / recruitment by ChIP-Seq (chromatin of HepG2 cells [2]): weaker consequences

- Kd (HRP3 PWWP WT): 4700 ± 1200 µM
Molecule: CC(C)[C@H](NC(=O)CNC(=O)CNC(=O)[C@@H](NC(=O)[C@H](C)NC(=O)[C@@H]1CCCN1C(=O)[C@H](C)N)[C@@H](C)O)C(=O)N[C@@H](CCCCN)C(=O)N[C@@H](CCCCN)C(=O)N1CCC[C@H]1C(=O)N[C@@H](Cc1c[nH]cn1)C(=O)N[C@@H](CCCNC(=N)N)C(=O)N[C@@H](Cc1ccc(O)cc1)C(=O)O [H3K36me0]

Molecule: KYNR-A: HRP3 K18A/Y22A/N76A/R78A mutant, GFP fusion
- chromatin binding (chromatin of HepG2 cells [1]): dramatically reduced the chromatin binding
- chromatin binding / recruitment by ChIP-Seq (chromatin of HepG2 cells [2]): strong reduction in chromatin binding

Molecule: 5′-GCGCGCGCGC-3′ [10-mer-GC]
- average helical twist (HRP3 PWWP; 3DNA): 35.3 °
- average propeller twist (HRP3 PWWP; 3DNA): −7.3 °
- bending angle towards the minor groove per 6 bps (HRP3 PWWP; Curve+ software): 3.4 °
- narrowing of minor groove upon PWWP binding (HRP3 PWWP; crystal structure of complex): ~2.7 Å
- width of the minor groove, PWWP-binding region (HRP3 PWWP; crystal structure of complex): 10.5 Å
- width of the minor groove, PWWP-free region (HRP3 PWWP; crystal structure of complex): 13.2 Å

- fold loss of binding affinity for the H3K36me3 peptide (H3K36me3 peptide): 6.7 fold
Molecule: F48A: HRP3 PWWP aromatic cage mutant

B1: 16-mer-GC (dsDNA)
DNA 1: GCGCGCGCGCGCGCGC
DNA 2: GCGCGCGCGCGCGCGC
- Kd (HRP3 PWWP (1-110) WT; self-complementary): 2.8 µM
- binding signal [3]: 5.7 fold loss vs WT

- Kd [4]: 2100 µM
B2: H3K36me2 histone peptide (H3 residues 29–41) (peptide, UniProt P68431 30-42, looked up)
peptide: APATGGVK(Me2)KPHRY
notes: histone H3, residues 29-41; also called H3K36me2-containing peptide

B3: 16-mer-TA (dsDNA)
DNA 1: TATATATATATATATA
DNA 2: TATATATATATATATA
- Kd (HRP3 PWWP (1-110) WT; self-complementary): 1.3 µM
- binding signal [3]: 58 fold loss vs WT
- binding result (HRP3 PWWP N76A): binds

- Kd [4]: 1300 µM
- fold loss of binding affinity against wild type [5]: 15 fold
- fold loss of binding affinity against wild type [6]: 6.7 fold
- fold decrease of binding against wild type [7]: 5.7 fold
B4: H3K36me3 histone peptide (H3 residues 29–41) (peptide, UniProt P68431 30-42, looked up)
peptide: APATGGVK(Me3)KPHRY
notes: histone H3, residues 29-41; also called H3K36me3 peptide; H3K36me3-containing peptide

B5: 16-mer-random (dsDNA)
DNA 1: CAGGCTGGTCTTGAAC
DNA 2: GTTCAAGACCAGCCTG
- Kd (HRP3 PWWP (1-110) WT): 3.2 µM
